PubChem BioAssay AID540316 (Broad Institute, 2011)
Inconclusive results are not listed. Calls of active or inactive are those of the source.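 The calls were made as follows: active = compounds lowering viability whose fitted half-maximal concentration is at most tenfold the top tested dose; inconclusive = flat curve with viability loss of 30 to 70%, or bad fit; inactive = the rest.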

Test system: not listed separately
Experiment: viability loss in BJeH fibroblasts, dose response, counter-screen for Ras selective lethality project, cell-based, plate reader, dry powder, set 4 (AID 540316)
Conditions: BJeH fibroblasts viability, Alamar Blue fluorescence, 48 h; at 48 µM (top of the series)
With `Cc1onc(C(=O)NCCNC(c2ccccc2)c2ccccc2)c1[N+](=O)[O-]` the activity change, negative = fewer viable cells was -11.9% (inactive).
For `Cc1onc(C(=O)N2CCCN(C(c3ccccc3)c3ccccc3)CC2)c1[N+](=O)[O-]`, the activity change, negative = fewer viable cells was -10.7% (inactive).
For `Cc1onc(C(=O)N2CCN(C(c3ccccc3)c3ccccc3)CC2)c1[N+](=O)[O-]`, the activity change, negative = fewer viable cells was -11.7% (inactive).
For `Cc1onc(CC(=O)N2CCN(C(c3ccc(F)cc3)c3ccc(F)cc3)CC2)c1[N+](=O)[O-]`, the activity change, negative = fewer viable cells was -13.5% (inactive).
For `Cc1onc(C(=O)N2CCN(Cc3ccccc3)CC2)c1[N+](=O)[O-]`, the activity change, negative = fewer viable cells was -0.245% (inactive).

Test system: BJeH fibroblasts viability, Alamar Blue fluorescence, 48 h
Experiment: as above
Conditions: not given
With `O=C(NCCNC(c1ccccc1)c1ccccc1)c1ccc([N+](=O)[O-])o1` the AC50 was 5.31 µM.
`COC(=O)c1ccc([C@@H]2c3[nH]c4ccccc4c3C[C@@H](C(=O)OC)N2C(=O)CCl)cc1` gave an AC50 of 2.68 µM.
`O=C(c1ccc([N+](=O)[O-])o1)N1CCN(C(c2ccc(F)cc2)c2ccc(F)cc2)CC1` gave an AC50 of 14.2 µM.
With `CCOc1ccccc1-n1c(C(C)N2CCN(C(=O)COc3ccc(Cl)cc3)CC2)nc2ccccc2c1=O` (stereo not given) the AC50 was 7.93 µM.
Compound `COc1ccc(C(c2ccc(OC)cc2)N2CCN(C(=O)c3ccc([N+](=O)[O-])o3)CC2)cc1` has an AC50 of 6.76 µM.
